Structures can show the parent of a compound that is named as a salt. Where two headings read alike, the source gives them in different places.
Tested on: gastric acid secretion
Assay: animal or person
Type: in vivo, dog
Conditions: Canis lupus familiaris; for inhibition in vivo at 1.6 mg/kg: i.d., dose 1.6 mg/kg i.d., histamine i.v.; for inhibition in vivo at 0.8 mg/kg: iv
[1] = 24 h, read-out: Persistency of inhibitory effect against gastric acid secretion (%)
[2] = read-out: Inhibitory effect against gastric acid secretion (%)

Structure (SMILES): Cc1c(OCC2(C)OCCO2)ccnc1C[S+]([O-])c1nc2ccccc2[nH]1 (stereo not drawn) [Example 70, Sodium salt of an optical isomer of 2-(((3-methyl-4-((2-methyl-1,3-dioxolan-2-yl)methoxy)pyridin-2-yl)methyl)sulfinyl)-1H-benzimidazole]
- inhibition in vivo at 1.6 mg/kg (24 h, second day, 24 hours after administration, read-out: Persistency of inhibitory effect against gastric acid secretion (%)): 77%
- inhibition in vivo at 1.6 mg/kg (first day, 1 h 40 min to 2 h after administration, read-out: Inhibitory effect against gastric acid secretion (%)): 100%

Structure (SMILES): Cc1c(OCCC2(C)OCC3(CO2)OCCO3)ccnc1C[S+]([O-])c1nc2ccccc2[nH]1 (stereo not shown) [Example 73, 2-(((3-methyl-4-(2-(8-methyl-1,4,7,9-tetraoxaspiro[4.5]dec-8-yl)ethoxy)pyridin-2-yl)methyl)sulfinyl)-1H-benzimidazole sodium salt]
- inhibition in vivo at 0.8 mg/kg [1]: 94%
- inhibition in vivo at 0.8 mg/kg [2]: 100%

Structure (SMILES): CC1(CCOc2ccnc(C[S+]([O-])c3nc4ccccc4[nH]3)c2)OCC2(CO1)OCCO2 (stereo not shown) [Example 75, 2-(((4-(2-(8-methyl-1,4,7,9-tetraoxaspiro[4.5]dec-8-yl)ethoxy)pyridin-2-yl)methyl)sulfinyl)-1H-benzimidazole sodium salt]
- inhibition in vivo at 0.8 mg/kg [1]: 75%
- inhibition in vivo at 0.8 mg/kg [2]: 85%

Structure (SMILES): Cc1c(OC2CCC3(CC2)OCC(C)(C)CO3)ccnc1C[S+]([O-])c1nc2ccccc2[nH]1 (stereo not shown) [Example 81, 2-(((4-((3,3-dimethyl-1,5-dioxaspiro[5.5]undec-9-yl)oxy)-3-methylpyridin-2-yl)methyl)sulfinyl)-1H-benzimidazole sodium salt]
- inhibition in vivo at 0.8 mg/kg [1]: 70%
- inhibition in vivo at 0.8 mg/kg [2]: 96%

Structure (SMILES): [O-][S+](Cc1cc(OC2COC3(CCC3)OC2)ccn1)c1nc2ccccc2[nH]1 (stereo not shown) [Example 83, 2-(((4-(5,9-dioxaspiro[3.5]non-7-yloxy)pyridin-2-yl)methyl)sulfinyl)-1H-benzimidazole sodium salt]
- inhibition in vivo at 0.8 mg/kg [1]: 94%
- inhibition in vivo at 0.8 mg/kg [2]: 71%

Structure (SMILES): Cc1c(OCC2OCC3(CCC3)CO2)ccnc1C[S+]([O-])c1nc2ccccc2[nH]1 (stereo not shown) [Example 85, 2-(((4-(6,8-dioxaspiro[3.5]non-7-ylmethoxy)-3-methylpyridin-2-yl)methyl)sulfinyl)-1H-benzimidazole sodium salt]
- inhibition in vivo at 0.8 mg/kg [1]: 86%
- inhibition in vivo at 0.8 mg/kg [2]: 100%

Structure (SMILES): Cc1c(OCCC2OCC(C)(C)CO2)ccnc1C[S+]([O-])c1nc2ccccc2[nH]1 (stereo not shown) [Example 86, 2-(((4-(2-(5,5-dimethyl-1,3-dioxan-2-yl)ethoxy)-3-methylpyridin-2-yl)methyl)sulfinyl)-1H-benzimidazole sodium salt]
- inhibition in vivo at 0.8 mg/kg [1]: 75%
- inhibition in vivo at 0.8 mg/kg [2]: 100%

Structure (SMILES): Cc1c(OCC2COCO2)ccnc1C[S+]([O-])c1nc2ccccc2[nH]1 (stereo not shown) [Example 87, 2-(((4-(1,3-dioxolan-4-ylmethoxy)-3-methylpyridin-2-yl)methyl)sulfinyl)-1H-benzimidazole sodium salt]
- inhibition in vivo at 0.8 mg/kg [1]: 92%
- inhibition in vivo at 0.8 mg/kg [2]: 100%

— patent US8124780B2, “Benzimidazole compound” (priority 2005, dated 2012)
